# Data taken from patent US11684616B2, “Azalactam compounds as HPK1 inhibitors” (PFIZER INC., priority 2020, dated 2023).
# Experiments:
# [1] = biological target: human full-length autophosphorylated recombinant HPK1 (Homo sapiens (Human), UniProt Q92918); assay: HPK1 biochemical enzyme assay (chelation-enhanced fluorescence, CHEF); conditions: 0.5 nM HPK1, 45 μM ATP, Morrison fit
# Procedure, shortened: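 Autophosphorylated full-length human HPK1 from Sf21 cells, His-tag removed by TEV, residual N-terminal Gly-Ser. Activity measured with a C-Sox fluorescent peptide substrate (CHEF); initial velocities followed at λex 360/λem 500 nm, 30 °C for 15 min.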
# [2] = test system: Phospho-SLP-76 (Ser376) in Jurkat cells; assay: Phospho-SLP-76 (Ser376) HTRF assay in anti-CD3 stimulated Jurkat cells; format: cell-based; conditions: Homo sapiens, Jurkat, 30 min pre-treatment, anti-CD3 stimulation 15 min, read-out: pSLP76 IC50
# Experimental: Cell Based Assays Phospho-SLP-76 (Ser376) Homogeneous Time Resolved Fluorescence (HTRF) Assay
# Jurkat cells were seeded at 90,000 cells/well in 90 uL of RPMI1640 growth medium containing 10% FBS and incubated at 37° C. with 5% CO2 overnight. The following day, compounds were serially diluted from a 10 mM top dose for an 11-point 3-fold dilution curve in DMSO. Compounds were intermediately diluted 1:100 into growth media prior to diluting 1:10 on cells for final concentration 10 μM to 0.1 nM in 0.1% DMSO. After 30 min pre-treatment with compounds, the cells were stimulated using 200 μg/mL of F(ab)2 complexed anti-CD3 (clone UCTH1) for 15 min at 37° C. with 5% CO2. Stimulation was stopped with ice cold PBS and cells were harvested by centrifugation before lysis in Cisbio lysis buffer (Cisbio, Bedford, Mass.). Lysates were transferred to white, low-volume plates containing anti-phospho-SLP-76-Cryptate plus anti-phospho-SLP-76-d2 HTRF antibodies and incubated overnight at room temperature protected from light according to the manufacturer's protocol (Cisbio, Bedford, Mass.). HTRF was measured on a Perkin Elmer Envision and IC50 values were calculated by concentration-response curve fitting utilizing four-parameter nonlinear regression analyses.
# Sequence of human full-length autophosphorylated recombinant HPK1 (Q92918 other isoform, or with tags, fused parts or gaps): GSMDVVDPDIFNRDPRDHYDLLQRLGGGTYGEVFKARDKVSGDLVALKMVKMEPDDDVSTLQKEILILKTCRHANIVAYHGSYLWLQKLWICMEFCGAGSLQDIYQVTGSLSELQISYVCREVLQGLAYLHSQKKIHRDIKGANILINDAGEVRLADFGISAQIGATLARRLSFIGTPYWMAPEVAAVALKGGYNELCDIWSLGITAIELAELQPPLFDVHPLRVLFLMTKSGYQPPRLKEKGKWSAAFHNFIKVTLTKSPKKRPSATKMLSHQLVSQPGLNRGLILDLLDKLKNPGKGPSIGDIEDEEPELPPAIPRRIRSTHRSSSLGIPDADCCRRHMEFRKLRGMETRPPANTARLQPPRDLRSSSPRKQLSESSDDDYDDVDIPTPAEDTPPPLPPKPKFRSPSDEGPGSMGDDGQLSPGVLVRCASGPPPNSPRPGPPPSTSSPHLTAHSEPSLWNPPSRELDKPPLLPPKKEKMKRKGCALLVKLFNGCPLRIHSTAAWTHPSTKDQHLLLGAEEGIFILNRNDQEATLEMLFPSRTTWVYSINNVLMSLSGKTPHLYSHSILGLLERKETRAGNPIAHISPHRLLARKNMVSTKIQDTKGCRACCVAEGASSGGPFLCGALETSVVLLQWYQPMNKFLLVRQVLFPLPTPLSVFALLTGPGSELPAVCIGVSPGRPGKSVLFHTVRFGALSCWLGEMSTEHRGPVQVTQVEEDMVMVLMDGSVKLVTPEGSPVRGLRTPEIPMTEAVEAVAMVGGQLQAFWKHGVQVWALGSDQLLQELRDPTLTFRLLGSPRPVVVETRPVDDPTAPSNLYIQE
Ki [1] [nM],IC50 [2] [nM],Structure (SMILES)
0.61,84,"CCn1c(C)nnc1-c1cccc(N2Cc3c(cc(N4CCC[C@H]4C)nc3[C@H](C)NC)C2=O)n1 (single isomer, unassigned) [Example 108]"
0.06,46,"CC[C@@H](N)c1nc(N2CCC[C@H]2C)cc2c1CN(c1cccc(-c3nnc4n3[C@@H](CF)CC4)n1)C2=O [Example 32, 4-[(1R)-1-aminopropyl]-2-{6-[(5R)-5-(fluoromethyl)-6,7-dihydro-5H-pyrrolo[2,1-c][1,2,4]triazol-3-yl]pyridin-2-yl}-6-[(2R)-2-methylpyrroli-din-1-yl]-2,3-dihydro-1H-pyrrolo[3,4-c]pyridin-1-one]"
0.38,148,"CCn1cnnc1-c1cccc(N2Cc3c(cc(N(C)C)nc3C(C)(C)N)C2=O)n1 [Example 132, 4-(2-aminopropan-2-yl)-6-(dimethyl-amino)-2-[6-(4-ethyl-4H-1,2,4-triazol-3-yl)pyridin-2-yl]-2,3-dihydro-1H-pyrrolo[3,4-c]pyridin-1-one]"
0.24,113,"CCn1c(C)nnc1-c1cccc(N2Cc3c(cc(N4CCC[C@H]4C)nc3[C@H](C)N)C2=O)n1 (single isomer, unassigned) [Example 155]"
0.093,487,"CC[C@@H]1CCc2nnc(-c3cccc(N4Cc5c(cc(N6CCC[C@H]6C)nc5[C@@H](N)CC)C4=O)n3)n21 (single isomer, unassigned) [Example 16]"
0.4,96,"CCCn1c(C)nnc1-c1cccc(N2Cc3c(cc(N(C)C(C)C)nc3[C@@H](C)N)C2=O)n1 (single isomer, unassigned) [Example 148, 4-[(1ξ)-1-aminoethyl]-6-[methyl (propan-2-yl)amino]-2-[6-(5-methyl-4-propyl-4H-1,2,4-triazol-3-yl)pyridin-2-yl]-2,3-dihydro-1H-pyrrolo[3,4-c]pyridin-1-one]"
0.3,181,"COC[C@@H](N)c1nc(C2(C)CC2)cc2c1CN(c1cccc(-c3nnc4n3[C@@H](CF)CC4)n1)C2=O (single isomer, unassigned) [Example 35]"
0.11,90,"CCCn1cnnc1-c1cccc(N2Cc3c(cc(N4CCC[C@H]4C)nc3[C@H](N)CC)C2=O)n1 [Example 144, 4-[(1R)-1-aminopropyl]-6-[(2R)-2-methylpyrroli-din-1-yl]-2-[6-(4-propyl-4H-1,2,4-triazol-3-yl)pyridin-2-yl]-2,3-dihydro-1H-pyrrolo[3,4-c]pyridin-1-one]"
0.67,133,"CCCn1cnnc1-c1cccc(N2Cc3c(cc(C4(C)CC4)nc3[C@H](C)NC)C2=O)n1 [Example 113, 4-[(1S)-1-(methylamino)ethyl]-6-(1-methylcyclo-propyl)-2-[6-(4-propyl-4H-1,2,4-triazol-3-yl)pyridin-2-yl]-2,3-dihydro-1H-pyrrolo[3,4-c]pyridin-1-one]"
< 0.05,53,"C[C@@H]1CCCN1c1cc2c(c([C@@H](C)N)n1)CN(c1cccc(-c3nnc4n3[C@H](C)CC4)n1)C2=O (single isomer, unassigned) [Example 25]"
1.02,94,"CCCn1cnnc1-c1cccc(N2Cc3c(cc(N(C)C)nc3C(C)(C)N)C2=O)n1 [Example 131, 4-(2-aminopropan-2-yl)-6-(dimethyl-amino)-2-[6-(4-propyl-4H-1,2,4-triazol-3-yl)pyridin-2-yl]-2,3-dihydro-1H-pyrrolo[3,4-c]pyridin-1-one]"
0.2,72,"CC(C)N(C)c1cc2c(c([C@@H](C)N)n1)CN(c1cccc(-c3nnc4n3[C@@H](CF)CC4)n1)C2=O [Example 29, 4-[(1R)-1-aminoethyl]-2-{6-[(5R)-5-(fluoromethyl)-6,7-dihydro-5H-pyrrolo[2,1-c][1,2,4]triazol-3-yl]pyridin-2-yl}-6-[methyl(propan-2-yl)amino]-2,3-dihydro-1H-pyrrolo[3,4-c]pyridin-1-one]"
0.25,120,"CCn1c(C)nnc1-c1cccc(N2Cc3c(cc(N4CCC[C@H]4C)nc3[C@@H](C)N)C2=O)n1 (single isomer, unassigned) [Example 154]"
0.56,216,"CCn1cnnc1-c1cccc(N2Cc3c(cc(C4(C)CC4)nc3[C@@H](C)N)C2=O)n1 [Example 115, 4-[(1R)-1-aminoethyl]-2-[6-(4-ethyl-4H-1,2,4-triazol-3-yl)pyridin-2-yl]-6-(1-methylcyclo-propyl)-2,3-dihydro-1H-pyrrolo[3,4-c]pyridin-1-one]"
0.9,165,"CC[C@@H](N)c1nc(C2(C)CC2)cc2c1CN(c1cccc(-c3nncn3CC)n1)C2=O (single isomer, unassigned) [Example 119, 4-[(1ξ)-1-aminopropyl]-2-[6-(4-ethyl-4H-1,2,4-triazol-3-yl)pyridin-2-yl]-6-(1-methylcyclo-propyl)-2,3-dihydro-1H-pyrrolo[3,4-c]pyridin-1-one]"
0.64,214,"CCn1cnnc1-c1cccc(N2Cc3c(cc(C4(C)CC4)nc3[C@H](C)N)C2=O)n1 [Example 116, 4-[(1S)-1-aminoethyl]-2-[6-(4-ethyl-4H-1,2,4-triazol-3-yl)pyridin-2-yl]-6-(1-methylcyclo-propyl)-2,3-dihydro-1H-pyrrolo[3,4-c]pyridin-1-one]"
2.97,531,"CC[C@H](N)c1nc(C2(C)CC2)cc2c1CN(c1cccc(-c3nncn3CC)n1)C2=O (single isomer, unassigned) [Example 120, 4-[(1ξ)-1-aminopropyl]-2-[6-(4-ethyl-4H-1,2,4-triazol-3-yl)pyridin-2-yl]-6-(1-methylcyclo-propyl)-2,3-dihydro-1H-pyrrolo[3,4-c]pyridin-1-one]"
0.93,340,"CC[C@H]1CCc2nnc(-c3cccc(N4Cc5c(cc(N6CCC[C@H]6C)nc5[C@H](N)CC)C4=O)n3)n21 (single isomer, unassigned) [Example 14]"
0.09,42,"CCn1cnnc1-c1cccc(N2Cc3c(cc(N4CCC[C@H]4C)nc3[C@@H](C)NC)C2=O)n1 (single isomer, unassigned) [Example 110]"
0.22,106,"CCn1c(C)nnc1-c1cccc(N2Cc3c(cc(N4CCC[C@H]4C)nc3C(C)(C)N)C2=O)n1 [Example 134, 4-(2-aminopropan-2-yl)-2-[6-(4-ethyl-5-methyl-4H-1,2,4-triazol-3-yl)pyridin-2-yl]-6-[(2R)-2-methylpyrroli-din-1-yl]-2,3-dihydro-1H-pyrrolo[3,4-c]pyridin-1-one]"
0.12,33,"CCn1cnnc1-c1cccc(N2Cc3c(cc(N4CCC[C@H]4C)nc3[C@@H](C)N)C2=O)n1 (single isomer, unassigned) [Example 151]"
< 0.05,47,"CNCc1nc(N(C)C(C)C)cc2c1CN(c1cccc(-c3nnc4n3[C@@H](C)CC4)n1)C2=O [Example 210, 4-[(methyl-amino)methyl]-2-{6-[(5S)-5-methyl-6,7-dihydro-5H-pyrrolo[2,1-c] [1,2,4]triazol-3-yl]pyridin-2-yl}-6-[methyl (propan-2-yl)amino]-2,3-dihydro-1H-pyrrolo[3,4-c] pyridin-1-one]"
< 0.07,53,"CC[C@@H](N)c1nc(N2CCC[C@H]2C)cc2c1CN(c1cccc(-c3nncn3CC)n1)C2=O [Example 140, 4-[(1R)-1-aminopropyl]-2-[6-(4-ethyl-4H-1,2,4-triazol-3-yl)pyridin-2-yl]-6-[(2R)-2-methylpyrroli-din-1-yl]-2,3-dihydro-1H-pyrrolo[3,4-c]pyridin-1-one]"
0.21,179,"CC[C@@H](N)c1nc(N(C)C)cc2c1CN(c1cccc(-c3nnc4n3[C@@H](CF)CC4)n1)C2=O [Example 33, 4-[(1R)-1-aminopropyl]-6-(dimethyl-amino)-2-{6-[(5R)-5-(fluoromethyl)-6,7-dihydro-5H-pyrrolo [2,1-c][1,2,4]triazol-3-yl]pyridin-2-yl}-2,3-dihydro-1H-pyrrolo[3,4-c]pyridin-1-one]"
< 0.05,42,"CC[C@@H](N)c1nc(N2CCC[C@H]2C)cc2c1CN(c1cccc(-c3nnc4n3[C@@H](CO)CC4)n1)C2=O [Example 31, 4-[(1R)-1-aminopropyl]-2-{6-[(5R)-5-(hydroxy-methyl)-6,7-dihydro-5H-pyrrolo[2,1-c][1,2,4]triazol-3-yl]pyridin-2-yl}-6-[(2R)-2-methylpyrroli-din-1-yl]-2,3-dihydro-1H-pyrrolo[3,4-c]pyridin-1-one]"
4.12,553,"CCCn1cnnc1-c1cccc(N2Cc3c(cc(C4(C)CC4)nc3[C@H](N)CC)C2=O)n1 (single isomer, unassigned) [Example 121, 4-[(1ξ)-1-aminopropyl]-6-(1-methylcyclo-propyl)-2-[6-(4-propyl-4H-1,2,4-triazol-3-yl)pyridin-2-yl]-2,3-dihydro-1H-pyrrolo[3,4-c]pyridin-1-one]"
